Laboratory results taken from paper PMC12655527, “An Investigational Study on the Role of ADME Agents’ Genetic Variation on DD217 Pharmacokinetics and Safety Profile” (Pharmaceuticals, 2025).

Key:
[1] = tested on: patients undergoing knee replacement surgery; test: Thromboembolic complications (DVT/PE) during 14-day therapy, phase II trial; assay type: in vivo, human; conditions: 14 days
From the text: (§1) The design, eligibility criteria, and outcomes of the phase II clinical trial evaluating the safety and tolerability of DD217 (NCT05189002, ClinicalTrials.gov) have been described previously. Briefly, this was a multicenter, double-blind, randomized, prospective phase II study designed to determine the optimal dosing regimen and to assess the safety and efficacy of DD217 for the prevention of venous thromboembolism (VTE) in patients undergoing knee replacement surgery. Patients were randomized into one of three groups: two groups received oral DD217 at doses of 40 mg or 60 mg once daily, starting on the morning of the first postoperative day, and one group received the active comparator, dalteparin sodium. The treatment duration was 14 days.
(§2) In total, seven cases of DVT/PE were documented during the trial: four in the DD217 40 mg/day group, one in the DD217 60 mg/day group, and two in the dalteparin sodium group. In addition, two bleeding events were recorded: one clinically relevant non-major bleed in the DD217 60 mg/day group and one clinically non-relevant minor bleed in the dalteparin sodium group.

[2] = tested on: patients undergoing knee replacement surgery; test: Bleeding events during 14-day therapy, phase II trial; assay type: in vivo, human
From the text: as §1, §2

P-glycoprotein (ABCB1) = tested on: P-glycoprotein (ABCB1); parameters: method as in earlier work; conditions: cited from earlier work
CYP = tested on: CYP; parameters: method as in DrugBank. Betrixaban (DB12364); conditions: ref DrugBank. Betrixaban (DB12364); cited from earlier work

With dalteparin sodium [reference compound] the “cases of DVT/PE” value ([1]; dalteparin sodium group (18 patients)) was “two”, the “PE/DVT, n (safety outcomes)” value ([1]; dalteparin sodium, of 18 patients) was 2 n and the bleeding events ([2]; dalteparin sodium group, clinically non-relevant minor bleed) was “one”. The “Bleeding, n (safety outcomes)” value ([2]; dalteparin sodium, 14 days, of 18 patients) was 1 n.
For COc1ccc(NC(=O)c2ccc(C(=N)N(C)C)cc2)c(C(=O)Nc2ccc(Cl)cn2)c1 [Betrixaban], the “P-glycoprotein (ABCB1) substrate status” value (P-glycoprotein (ABCB1)) is listed as “P-glycoprotein (ABCB1) substrate” and the “share of metabolism via CYP” value (CYP) is listed as under 1%.
